Experimental data: patent US9242985B2, “Structural mimetics of proline-rich peptides and use thereof” (priority 2011, dated 2016)
No end group written: not given here.

Tests used:
Type in all cases: binding
EVH1 domain (VASP-EVH1) [1] = target: T1, EVH1 domain (VASP-EVH1) (Homo sapiens, UniProt P50552); assay: Bonding affinity to EVH1 domain by fluorescence titration
Description: (§1) With the aid of the synthetic compound 85, by way of an example, the ligand peptides were synthetized with partially or completely substituted proline sequences and then examined for their interaction with the EVH1 domain (p=component 85). It was found therein that, due to the insertion of the mimetic 85, it was possible to increase the bonding affinity of the ligand peptides relative to the domain.
(§2) This is summarized in Table 1 below, which lists the bonding affinities of the ligand peptides as well as of the underlying native peptide ligands.
(§3) The bonding affinities were determined by means of fluorescence titration and isothermal calorimetry (p=component 85, wherein x denotes the already known PPII-mimetic amino acid according to structure 86 (presently as Fmoc-protected amino acid); and “2-Cl—F” stands for 2-Cl-phenylalanine).

EVH1 domain (VASP-EVH1) [2] = target: T1, EVH1 domain (VASP-EVH1); assay: Bonding affinity to EVH1 domain by isothermal calorimetry (ITC)
Description: as §1, §2, §3

VASP-EVH1 = VASP-EVH1 (Homo sapiens, UniProt P50552); assay: Further experiments: bonding affinity of ligand peptides to the domain (method not given)
VASP-EVH1, sequence (P50552 2-113 limits assumed): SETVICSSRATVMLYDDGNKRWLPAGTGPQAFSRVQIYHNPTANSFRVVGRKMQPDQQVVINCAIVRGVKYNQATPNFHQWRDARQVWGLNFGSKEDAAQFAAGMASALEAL
Description: In addition, the observed increase in affinity with the compounds according to the invention allows for the first time ever to forego using natural amino acids completely, while still preserving the ability to bind to the EVH1 domains: […]

VASP-EVH1 domain = VASP-EVH1 domain (Homo sapiens, UniProt P50552)
VASP-EVH1 domain, sequence (P50552 2-113): as the sequence (P50552 2-113 limits assumed) above
Description: In addition, based on a number of different test ligand peptides, it was possible to gain an overview of the bonding affinities.

T1 sequence (P50552 2-113): as the sequence (P50552 2-113 limits assumed) above

## CC(=O)N[C@@H](CO)C(=O)N[C@@H](Cc1ccccc1)C(=O)N[C@@H](CCC(=O)O)C(=O)N[C@@H](Cc1ccccc1Cl)C(=O)N1CCC[C@H]1C(=O)N1CCC[C@H]1C(=O)N1CCC[C@H]1C(=O)N1CCC[C@H]1C(=O)N[C@H](C(=O)N[C@@H](CCC(=O)O)C(=O)N[C@@H](CC(=O)O)C(=O)N[C@@H](CCC(=O)O)C(=O)N[C@@H](CC(C)C)C(N)=O)[C@@H](C)O
EVH1 domain (VASP-EVH1) [1]
  Kd: 5 µM
EVH1 domain (VASP-EVH1) [2]
  Kd: 2 µM

## Ac-FPPPP [Ac-(SEQ ID NO: 4)-OH]
VASP-EVH1
  Kd: > 500 µM

## FPPPPT [FPPPPT]
VASP-EVH1 domain
  bonding affinity KD: no measurable affinity
